Data: patent US10285986B2, “Compounds and anti-tumor NQO1 substrates” (The Board of Trustees of the University of Illinois, priority 2011, dated 2019)
Values after ≈ are worked out from the molar mass of the structure shown. Read-outs that look alike come from different tables or passages of the source.

What was measured:
[1] = Stability during incubation in plasma, whole blood and liver microsomes; type: in vitro ADME; settings: rat, dog, and human
Experimental: Absorption Systems measured the stability of 4-31 during incubation in rat, dog, and human plasma, whole blood, and liver microsomes. […] This is in strong contrast top-lap, which has been reported to be completely degraded within about 30 min in whole blood.

[2] = pKa, log P and log D of 4-31 measured by Absorption Systems; type: physicochemical
Text: A sample of compound 4-31 was delivered to Absorption Systems, a company that specializes in preclinical formulation and stability studies. […] They measured a few physical properties of 4-31, including pKa, log P and log D. Through potentiometric titrations they measured the pKa of 4-31 to be 8.0.

[3] = system: DNA single strand damage, base lesions and double strand breaks; experiment: DNA damage in vitro (alkaline comet assays, nuclear staining of DSB markers); type: cell-based; settings: data not shown
[4] = Solubility in organic solvents; type: physicochemical; settings: for solubility: organic solvent or mixture, thermodynamic from solid
Experimental: The solubility of DNQ derivatives in organic solvents was determined by measuring the amount of a given solvent required to dissolve a known amount of compound. Solvent was added to the compound in 50 μL aliquots and the slurry was sonicated. […] Solubility was assessed in DMSO, dichloromethane, and 33% methanol in dichloromethane (FIGS. 9, 10, and 11, respectively).

[5] = system: A549 NSCLC cells; experiment: A549 subcutaneous xenograft model in nude mice, with or without ionizing radiation; type: in vivo, Athymic nude mice; settings: 5 mg/kg by tail vein on days 1, 3, 5, 7, 9, with or without 2 grays radiation; preliminary
Experimental: We are actively experimenting with DNQ in mouse models of cancer. The Boothman lab has completed a pilot study of DNQ in an A549 subcutaneous xenograft model in nude mice (Blanco et al., Cancer Res. 2010, 70, 3896). […] Athymic nude mice were inoculated with A549 NSCLC cells and established tumors were allowed to grow to ˜200 mm^3. Mice were assigned to one of six treatment groups—four mice per group. […] The doses of DNQ were chosen based on the observation that 10 mg/kg DNQ elicited adverse reactions in mice. The other three groups received the same DNQ regimen and also received 2 grays of ionizing radiation on each treatment day. Tumor volumes were measured over the subsequent weeks (FIG. 3).

[6] = system: healthy mice; experiment: in vivo; settings: mouse
Text: Because of the difficulty of repeated tail vein injections in mice, our group is using IP administration of compound.
All of these derivatives are currently being assessed for their maximum tolerated dose (MTD) in healthy mice. Compounds are formulated in HPβCD and delivered by IP injection to two mice once daily for five days.

[7] = system: NQO1+ cells; experiment: NQO1-dependent lethality to cancer cells in vitro; type: cell-based
Text: NQO1 or PARP-1 knockdown spared the short-term lethality of DNQ-treated NQO1+ cells. BAPTA-AM (cytosolic Ca^2+ chelator) and catalase (enzymatic H2O2 scavenger) rescued DNQ-induced lethality by long-term survival assessments.

[8] = 2:1 CH2Cl2:MeOH, Table 4.3, read-out: Solubility in 2:1 CH2Cl2:MeOH
[9] = CH2Cl2:MeOH 2:1, Table 1, read-out: CH2Cl2:MeOH 2:1 solubility
[10] = CH2Cl2, Table 1, read-out: CH2Cl2 solubility
[11] = DMSO, Table 1, read-out: DMSO solubility

Cc1cc(=O)[nH]c2c1C(=O)c1c(C)cc(=O)n(CC(C)C)c1C2=O [Compound 87]
stability in liver microsomes ([1]; 1 hour): no sign of degradation
stability in plasma or whole blood ([1]; 2 hours): no sign of degradation
logP ([2]; octanol/0.15 M KCl, unionized compound): 1.8
logD ([2]; pH 3.0, octanol/0.15 M KCl): 1.78
logD ([2]; pH 4.0, octanol/0.15 M KCl): 1.78
logD ([2]; pH 6.8, octanol/0.15 M KCl): 1.76
logD ([2]; pH 7.0, octanol/0.15 M KCl): 1.75
logD ([2]; pH 8.0, octanol/0.15 M KCl): 1.49
logD ([2]; pH 9.0, octanol/0.15 M KCl): 0.76
pKa ([2]; potentiometric titrations, N—H): 8
DNA single strand damage and base lesions ([3]; alkaline comet assays): extensive initial DNA single strand damage and base lesions
delay of DNA double strand break formation after initial DNA SSBs and base lesions [3]: 15 to 30 min
Solubility in CH2Cl2 ([4]; CH2Cl2, Table 4.3): 180 mM (≈ 58.7 mg/mL)
Solubility in DMSO ([4]; DMSO, Table 4.3): 110 mM (≈ 35.9 mg/mL)
solubility [4, 8]: 140 mM (≈ 45.7 mg/mL)
solubility [4, 9]: 140 mM (≈ 45.7 mg/mL)
solubility [4, 10]: 180 mM (≈ 58.7 mg/mL)
solubility [4, 11]: 110 mM (≈ 35.9 mg/mL)

Cc1cc(=O)[nH]c2c1C(=O)c1c(C)cc(=O)n(C)c1C2=O [DNQ, Deoxynyboquinone, reference compound]
rate of tumor growth [5]: slower the rate of tumor growth relative to control
Solubility in CH2Cl2 ([4]; CH2Cl2, Table 4.3): 0.7 mM (≈ 0.199 mg/mL)
Solubility in DMSO ([4]; DMSO, Table 4.3): 3.1 mM (≈ 0.881 mg/mL)
solubility [4, 8]: 8.5 mM (≈ 2.42 mg/mL)
solubility [4, 9]: 8.5 mM (≈ 2.42 mg/mL)
solubility [4, 10]: 0.7 mM (≈ 0.199 mg/mL)
solubility [4, 11]: 3.1 mM (≈ 0.881 mg/mL)
dose that elicited adverse reactions in mice [6]: 10 mg/kg
phenotype in mice at the MTD ([6]; ip): lethargic and unresponsive to touch
LD90 ([7]; 2 hour exposure of NQO1+ cells): 50 to 250 nM
potency compared to β-lapachone ([7]; cancer cell types, NQO1-dependent): 20- to 100 fold
